Assay results taken from PubChem BioAssay (NCI).
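Step 1: Grow cells in 96-well plates. Step 2: Expose to compound for 48 hours at 5 concentrations. Step 3: Interpolate endpoints linearly; if unreached, use highest concentration. GI50: concentration for 50% inhibition of growth. TGI: concentration producing complete growth inhibition.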

Tests used:
Assay in all cases: DTP human tumour cell line panel, 48 h
CAKI-1 renal = tested on: CAKI-1 renal
UACC-257 melanoma = tested on: UACC-257 melanoma
HOP-62 NSCLC = tested on: HOP-62 NSCLC
SK-OV-3 ovarian = tested on: SK-OV-3 ovarian
SK-MEL-2 melanoma = tested on: SK-MEL-2 melanoma
OVCAR-5 ovarian = tested on: OVCAR-5 ovarian
BT-549 breast = tested on: BT-549 breast
A549 NSCLC = tested on: A549 NSCLC
U251 CNS = tested on: U251 CNS
TK-10 renal = tested on: TK-10 renal
M14 melanoma = tested on: M14 melanoma
A498 renal = tested on: A498 renal
UO-31 renal = tested on: UO-31 renal
SF-268 CNS = tested on: SF-268 CNS
SF-295 CNS = tested on: SF-295 CNS
SNB-19 CNS = tested on: SNB-19 CNS
MCF7 breast = tested on: MCF7 breast
MDA-MB-435 = tested on: MDA-MB-435
DU-145 prostate = tested on: DU-145 prostate
ACHN renal = tested on: ACHN renal
COLO 205 colon = tested on: COLO 205 colon
HCT-15 colon = tested on: HCT-15 colon
NCI/ADR-RES ovarian = tested on: NCI/ADR-RES ovarian
MOLT-4 leukemia = tested on: MOLT-4 leukemia
HCC-2998 colon = tested on: HCC-2998 colon
NCI-H23 lung = tested on: NCI-H23 lung
OVCAR-3 ovarian = tested on: OVCAR-3 ovarian
HT29 colon = tested on: HT29 colon

COc1cc2c3c(n(C)c(=O)c2cc1OC)-c1ccc(C#N)cc1C3=O
GI50 (CAKI-1 renal): > 100 µM
TGI (CAKI-1 renal): > 100 µM
GI50 (UACC-257 melanoma): > 100 µM
TGI (UACC-257 melanoma): > 100 µM
GI50 (HOP-62 NSCLC): 74.1 µM
TGI (HOP-62 NSCLC): > 100 µM
GI50 (SK-OV-3 ovarian): > 100 µM
TGI (SK-OV-3 ovarian): > 100 µM
GI50 (SK-MEL-2 melanoma): > 100 µM
TGI (SK-MEL-2 melanoma): > 100 µM
GI50 (OVCAR-5 ovarian): > 100 µM
TGI (OVCAR-5 ovarian): > 100 µM
GI50 (BT-549 breast): > 100 µM
TGI (BT-549 breast): > 100 µM
GI50 (A549 NSCLC): > 100 µM
TGI (A549 NSCLC): > 100 µM
GI50 (U251 CNS): 84.9 µM
TGI (U251 CNS): > 100 µM
GI50 (TK-10 renal): > 100 µM
TGI (TK-10 renal): > 100 µM
GI50 (M14 melanoma): > 100 µM
TGI (M14 melanoma): > 100 µM
GI50 (A498 renal): 64.7 µM
TGI (A498 renal): > 100 µM
GI50 (UO-31 renal): > 100 µM
TGI (UO-31 renal): > 100 µM
GI50 (SF-268 CNS): > 100 µM
TGI (SF-268 CNS): > 100 µM
GI50 (SF-295 CNS): 73.7 µM
TGI (SF-295 CNS): > 100 µM
GI50 (SNB-19 CNS): > 100 µM
TGI (SNB-19 CNS): > 100 µM
GI50 (MCF7 breast): 51.1 µM
TGI (MCF7 breast): > 100 µM
GI50 (MDA-MB-435): > 100 µM
TGI (MDA-MB-435): > 100 µM
GI50 (DU-145 prostate): > 100 µM
TGI (DU-145 prostate): > 100 µM
GI50 (ACHN renal): > 100 µM
TGI (ACHN renal): > 100 µM
GI50 (COLO 205 colon): > 100 µM
TGI (COLO 205 colon): > 100 µM
GI50 (HCT-15 colon): > 100 µM
TGI (HCT-15 colon): > 100 µM
GI50 (NCI/ADR-RES ovarian): > 100 µM
TGI (NCI/ADR-RES ovarian): > 100 µM
GI50 (MOLT-4 leukemia): > 100 µM
TGI (MOLT-4 leukemia): > 100 µM
GI50 (HCC-2998 colon): > 100 µM
TGI (HCC-2998 colon): > 100 µM
GI50 (NCI-H23 lung): > 100 µM
TGI (NCI-H23 lung): > 100 µM
GI50 (OVCAR-3 ovarian): > 100 µM
TGI (OVCAR-3 ovarian): > 100 µM
GI50 (HT29 colon): > 100 µM
